From PMC2680961, “Homologous desensitization of signalling by the alpha (α) isoform of the human thromboxane A2 receptor: A specific role for nitric oxide signalling” (Biochimica et Biophysica Acta, 2007)

Target: T1, TP^Δ328 (Homo sapiens, UniProt P21731)
T1 construct: expressed in transfected cells
T1 sequence (P21731 1-328): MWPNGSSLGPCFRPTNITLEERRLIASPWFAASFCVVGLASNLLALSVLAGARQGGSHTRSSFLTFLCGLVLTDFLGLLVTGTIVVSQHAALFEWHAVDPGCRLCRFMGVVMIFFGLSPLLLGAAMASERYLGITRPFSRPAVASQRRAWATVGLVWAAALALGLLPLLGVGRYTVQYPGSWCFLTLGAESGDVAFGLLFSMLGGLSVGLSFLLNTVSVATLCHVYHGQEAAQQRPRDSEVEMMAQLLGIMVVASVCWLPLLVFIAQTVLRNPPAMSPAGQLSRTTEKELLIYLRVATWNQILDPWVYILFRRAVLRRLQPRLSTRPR
Assay: IP3 generation, HEK.TP^Δ328 cells
Type: cell-based
Settings: 1 μM U46619 2 min, washout, restimulation at 60 min
Method: Intracellular IP3 levels were measured as previously described [[33,43]]. Briefly, cells were harvested by scraping, washed twice in ice-cold PBS and resuspended at approximately 2 × 10^6 cells/200 μl in HEPES-buffered saline (HBS; […], 4.7 mM KCl, 2.2 mM CaCl2, 1.2 mM KH2PO4, 11 mM glucose, 15 mM HEPES–NaOH, pH 7.4), 10 mM LiCl (Walsh et al., 2000). […] Thereafter, cells were stimulated with 1 μM U46619 at 37 °C for 2 min. To assess agonist-mediated homologous desensitization, cells (2 × 10^6 cells/200 μl) were stimulated with 1 μM U46619 at 37 °C for 2 min (Primary stimulation); thereafter, cells were collected by centrifugation (900×g, 5 min); were washed once in 200 μl HBS, 10 mM LiCl and finally resuspended in 200 μl HBS, 10 mM LiCl and were left to recover for 60 min; thereafter, cells were re-stimulated with 1 μM U46619 at 37 °C for 2 min (secondary stimulation). All ligands and […] were pre-diluted in HBS such that 50 μl added to 200 μl of cell suspension in HBS gave the desired final concentration. To determine basal IP3 levels, an equivalent volume (50 μl) of the vehicle HBS was added instead of ligand. The level of IP3 produced was quantified by radio competition assay essentially as described. […]

IP3 generation following secondary restimulation after U46619 pre-incubation: no significant effect
Structure (SMILES): CCCCC[C@H](O)/C=C/[C@@H]1[C@@H](C/C=C\CCCC(=O)O)[C@H]2CO[C@@H]1C2 [U46619]
